In US20240148821A1, “PHARMACEUTICAL USE OF CYCLIC PEPTIDE COMPOUND” (CHUGAI SEIYAKU KABUSHIKI KAISHA, priority 2021, published 2024):
Numbered stars: 1 amine (or outer) side, 2 acyl side, 3 side chain; on linkers, the order of the positions; unused ones are H or OH. Bridge positions count the residues as written; N and C are the ends. Square brackets hold non-standard residues; d marks the D form. Peptide text beside a SMILES is read from it. * marks the point of attachment. hPhe(3-Cl-4-CF3) = N[C@@H](CCc1ccc(C(F)(F)F)c(Cl)c1)C(=O)O; X25 = COc1ccc(C[C@@H](C(=O)[*:2])N(C)[*:1])cn1; NMePhe(4-F) = CN[C@@H](Cc1ccc(F)cc1)C(=O)O; NMeGly(cPent) = CN[C@H](C(=O)O)C1CCCC1; Phe(3-I) = N[C@@H](Cc1cccc(I)c1)C(=O)O; NMeY = CN[C@@H](Cc1ccc(O)cc1)C(=O)O; NMeCha = CN[C@@H](CC1CCCCC1)C(=O)O; NMehLeu = CN[C@@H](CCC(C)C)C(=O)O; NMeChg = CN[C@H](C(=O)O)C1CCCCC1; NMeF = CN[C@@H](Cc1ccccc1)C(=O)O; NMeD = CN[C@@H](CC(=O)O)C(=O)O; NMeL = CN[C@@H](CC(C)C)C(=O)O; d(β3hA) = C[C@@H](N)CC(=O)O; NMeS = CN[C@@H](CO)C(=O)O; NMeA = CN[C@@H](C)C(=O)O; Piperidide = C1CCN(*)CC1; Pyrrolidide = C1CCN(*)C1; dNMeA = CN[C@H](C)C(=O)O; Ac5c = NC1(C(=O)O)CCCC1; Aze = O=C(O)[C@@H]1CCN1; CH2CMe2OH = CC(C)(O)C*; Cyclobutyl = C1CC(*)C1; βAla = NCCC(=O)O; Sar = CNCC(=O)O

Test system: Human pancreatic cancer cell line AsPC-1 (G12D mutation Kras)
Experiment: AsPC-1 cell growth inhibition (AsPC-1 CGI)
Type: cell-based
Conditions: read-out: AsPC-1 cell growth inhibition, 50% growth inhibitory concentration (IC50 value); 96 hours, CellTiter-Glo, values classified in ranges
Procedure: Test compounds were serially dilated with dimethyl sulfoxide, and 200 nL was then dispensed to a U-bottom 96-well plate using Labcyte Echo. […] The cell suspension was dispensed to a. plate containing a test compound at 100 μL per well and incubated at 37° C. in a 5% carbon dioxide gas incubator. 96 hours later, 80 μL of CellTiter-Glo (Promega) was added to each well and fluorescence was measured.

Structure (SMILES) | IC50
CC[C@H](C)[C@@H]1NC(=O)[C@H](CC(C)C)N(C)C(=O)C[C@@H](C(=O)N2CCCCC2)N(C)C(=O)[C@H](CC2CCCCC2)N(C)C(=O)C2(CCCC2)NC(=O)[C@@H]2CCCN2C(=O)[C@H](CCc2ccc(C(F)(F)F)c(Cl)c2)NC(=O)CN(C)C(=O)[C@H](CC2CCCCC2)N(C)C(=O)CN(C)C(=O)CN(C)C1=O [Compound 577] ([NMeL]I[Sar][Sar][NMeCha][Sar][hPhe(3-Cl-4-CF3)]P[Ac5c][NMeCha][NMeD]-Piperidide; lactam N-11) | > 500 nM
CC[C@H](C)[C@@H]1NC(=O)[C@H](C)N(C)C(=O)C[C@@H](C)NC(=O)[C@H](C2CCCC2)N(C)C(=O)C2(CCCC2)NC(=O)[C@@H]2CCCN2C(=O)[C@H](CCc2ccc(C(F)(F)F)c(Cl)c2)NC(=O)[C@@H](C)N(C)C(=O)[C@H](Cc2ccc(F)cc2)N(C)C(=O)[C@@H]2CCN2C(=O)[C@H](C)N(C)C1=O [Compound 584] (cyclo([Ac5c][NMeGly(cPent)][d(β3hA)][NMeA]I[NMeA][Aze][NMePhe(4-F)][dNMeA][hPhe(3-Cl-4-CF3)]P)) | > 500 nM
CC[C@H](C)[C@@H]1NC(=O)[C@H](CC(C)C)N(C)C(=O)C[C@@H](C(=O)N2CCCCC2)N(C)C(=O)[C@H](COC2CCC2)N(C)C(=O)C2(CCCC2)NC(=O)[C@@H]2CCCN2C(=O)[C@H](CCc2ccc(C(F)(F)F)c(Cl)c2)NC(=O)CN(C)C(=O)[C@H](CC2CCCCC2)N(C)C(=O)CN(C)C(=O)CN(C)C1=O [Compound 585] ([NMeL]I[Sar][Sar][NMeCha][Sar][hPhe(3-Cl-4-CF3)]P[Ac5c][NMeS](Cyclobutyl)[NMeD]-Piperidide; lactam N-11) | > 500 nM
CC[C@H](C)[C@@H]1NC(=O)[C@H](CC(C)C)N(C)C(=O)C[C@@H](C)NC(=O)[C@H](CCC(C)C)N(C)C(=O)C2(CCCC2)NC(=O)[C@@H]2CCCN2C(=O)[C@H](CCc2ccc(C(F)(F)F)c(Cl)c2)NC(=O)CN(C)C(=O)[C@H](CC2CCCCC2)N(C)C(=O)CN(C)C(=O)CN(C)C1=O [Compound 586] (cyclo([Ac5c][NMehLeu][d(β3hA)][NMeL]I[Sar][Sar][NMeCha][Sar][hPhe(3-Cl-4-CF3)]P)) | > 500 nM
CC[C@H](C)[C@@H]1NC(=O)[C@H](CC(C)C)N(C)C(=O)C[C@@H](C(=O)N2CCCCC2)N(C)C(=O)[C@H](C2CCCCC2)N(C)C(=O)[C@H](C)NC(=O)[C@@H]2CCCN2C(=O)[C@H](CCc2ccc(C(F)(F)F)c(Cl)c2)NC(=O)CN(C)C(=O)[C@H](CC2CCCCC2)N(C)C(=O)CN(C)C(=O)CN(C)C1=O [Compound 591] ([NMeL]I[Sar][Sar][NMeCha][Sar][hPhe(3-Cl-4-CF3)]PA[NMeChg][NMeD]-Piperidide; lactam N-11) | > 500 nM
CC[C@H](C)[C@@H]1NC(=O)[C@H](CC(C)C)N(C)C(=O)C[C@@H](C)NC(=O)[C@H](C2CCCCC2)N(C)C(=O)C2(CCCC2)NC(=O)[C@@H]2CCCN2C(=O)[C@H](CCc2ccc(C(F)(F)F)c(Cl)c2)NC(=O)CN(C)C(=O)[C@H](CC2CCCCC2)N(C)C(=O)CN(C)C(=O)CN(C)C1=O [Compound 593] (cyclo([Ac5c][NMeChg][d(β3hA)][NMeL]I[Sar][Sar][NMeCha][Sar][hPhe(3-Cl-4-CF3)]P)) | > 500 nM
CC(C)C[C@H]1C(=O)N[C@@H]([C@@H](C)O)C(=O)N(C)CC(=O)N(C)CC(=O)N(C)[C@@H](CC2CCCCC2)C(=O)N(C)CC(=O)N[C@@H](CCc2ccc(C(F)(F)F)c(Cl)c2)C(=O)N2CCC[C@H]2C(=O)NC2(CCCC2)C(=O)N(C)[C@@H](C2CCCCC2)C(=O)N(C)[C@H](C(=O)N2CCCCC2)CC(=O)N1C [Compound 603] ([NMeL]T[Sar][Sar][NMeCha][Sar][hPhe(3-Cl-4-CF3)]P[Ac5c][NMeChg][NMeD]-Piperidide; lactam N-11) | > 500 nM
CC[C@H](C)[C@@H]1NC(=O)[C@H](C)N(C)C(=O)C[C@@H](C(=O)N2CCCC2)N(C)C(=O)[C@H](CC(C)C)NC(=O)[C@H](Cc2ccccc2)N(C)C(=O)[C@H](C)NC(=O)[C@H](Cc2cccc(I)c2)NC(=O)CN(C)C(=O)[C@H](Cc2ccc(OC)cc2)N(C)C(=O)[C@@H]2CCN2C(=O)[C@H](C)N(C)C1=O [Compound 604] ([NMeA]I[NMeA][Aze][NMeY](Me)[Sar][Phe(3-I)]A[NMeF]L[NMeD]-Pyrrolidide; lactam N-11) | > 500 nM
CC[C@H](C)[C@@H]1NC(=O)CCNC(=O)[C@H](COCC(C)(C)O)N(C)C(=O)[C@H](C2CCCCC2)N(C)C(=O)C2(CCCC2)NC(=O)[C@@H]2CCCN2C(=O)[C@H](CCc2ccc(C(F)(F)F)c(Cl)c2)NC(=O)CN(C)C(=O)[C@H](CC2CCCCC2)N(C)C(=O)CN(C)C(=O)CN(C)C1=O [Compound 605] (cyclo([Ac5c][NMeChg][NMeS](CH2CMe2OH)[βAla]I[Sar][Sar][NMeCha][Sar][hPhe(3-Cl-4-CF3)]P)) | > 500 nM
CC[C@H](C)[C@@H]1NC(=O)[C@H](CC(C)C)N(C)C(=O)C[C@@H](C(=O)N2CCCCC2)N(C)C(=O)[C@H](C2CCCCC2)N(C)C(=O)C2(CCCC2)NC(=O)[C@H](Cc2ccc(OC)nc2)N(C)C(=O)[C@H](CCc2ccc(C(F)(F)F)c(Cl)c2)NC(=O)CN(C)C(=O)[C@H](CC2CCCCC2)N(C)C(=O)[C@@H]2CCN2C(=O)CN(C)C1=O [Compound 614] ([NMeL]I[Sar][Aze][NMeCha][Sar][hPhe(3-Cl-4-CF3)][X25][Ac5c][NMeChg][NMeD]-Piperidide; lactam N-11) | > 500 nM
